Experimental data from patent US11311543B2, “Compositions and methods for inhibiting PTPN22” (YALE UNIVERSITY, priority 2016, dated 2022).

System: PTPN22
Test: PTPN22 expression by western blot in shRNA-transduced RAMOS B cell line
Type: cell-based
Settings: human RAMOS B cell line, GFP+ shRNA+ vs GFP-
Description: FIG. 10A depicts flow cytometry analysis of Ramos B cells transduction efficiency. Ramos B cells were transduced with three different GFP-tagged shRNA PTPN22 expressing lentiviruses and probed for GFP expression. […] Percentage of knock-down is indicated. FIG. 10B depicts the frequencies of polyreactive new emigrant B cells from sorted GFP− fractions were determined. […] For each B-cell fraction, the frequency of reactive (filled area) and non-reactive (open area) clones is summarized in pie charts with the total number of clones tested indicated in the center. FIG. 10C depicts the frequencies of HEp-2 reactive new emigrant B cells from sorted GFP− fractions were determined. […] For each B-cell fraction, the frequency of reactive (filled area) and non-reactive (open area) clones is summarized in pie charts with the total number of clones tested indicated in the center. FIG. 10D depicts the frequencies of antinuclear new emigrant B cells are compared between GFP− and GFP+ shRNA+ new emigrant B cells. […]
Total cell lysates were separated by SDS page, transferred to PVDF membranes, probed with mouse anti-PTPN22 (Invitrogen) and detected by chemiluminescence (Amersham ECL Prime Western Blotting detection Reagent) using a GBox documentation system (Syngene). For quantification, blots were stripped with stripping buffer (Pierce) and reprobed with a mouse anti-β-Actin antibody (Sigma-Aldrich).

**Q.** How did the “inhibition of PTPN22 expression detected by western blot” value turn out when “#3: shRNA targeting human PTPN22, 5′-AAGAATCCACCTGACTTCC-3′” was run?
**A.** about 80%
